In patent publication US9526249B2, “Biocidal composition of 2,6-dimethyl-m-dioxane-4-ol acetate and methods of use” (priority 2008, dated 2016):

Tests used:
Type in all cases: cell-based
[1] = test system: Pseudomonas aeruginosa (ATCC#15442), Pseudomonas aeruginosa (ATCC#10145), Enterobacter aerogenes (ATCC#13048), Escherichia coli (ATCC#11229), Klebsiella …; test: Preservative efficacy (repeated bacterial challenge) of dimethoxane/BIT in commercial water-based latex paint (pH 7.4), 96-deep well block
Procedure: (§1) In the following examples, tests are conducted in a 96-deep well block format using a total sample volume of 600 μl for all evaluations. In these samples, no more than 10% of the total volume consists of the biocide and organism solution and all non-matrix additions are normalized for all samples. Each experimental 96-well block contains biocide-treated samples and control samples which lack biocide.
(§2) Twenty-four hour tryptic soy broth cultures are combined in equal parts for formulation inoculation at a final concentration of 5×10^6 CFU/ml. Organisms are added to each sample of the 96-well block and mixed until homogenous. Additionally, bacterial challenges of the industrial or household product occur on days 2, 7, and 14 of the 28-day test period.
(§3) Sample aliquots are removed, at predetermined time points, for the enumeration of surviving microorganisms. Numerical values in the data tables listed below represent the log10 viable microorganisms recovered from individual samples at specific time points and biocide concentrations post microorganism addition. Biocide concentrations resulting in a≧4 log10 kill of microorganisms, as compared to the preservative-free control, were deemed a significant reduction of viable organisms and were subsequently used for calculating synergy index values.
(§4) The reported synergy indexes are measured and calculated using the formula described below. In this approach, a synergy index of 1 indicates additivity. If the index is less than 1, synergy has occurred, while a synergy index greater than 1 indicates antagonism. Synergy index=CA/Ca+CB/Cb Ca=minimal concentration of antimicrobial A, alone, producing a 4 log10 microbial kill Cb=minimal concentration of antimicrobial B, alone, producing a 4 log10 microbial kill
(§5) CA and CB=the concentrations of antimicrobials A and B, in combination, producing a 4 log10 microbial kill.
(§6) The antimicrobial profiles of dimethoxane, BIT, and combinations of dimethoxane/BIT are evaluated in a commercial (interior eggshell) water-based latex paint formulation (pH 7.4). The paint formulation is determined to be free of microbial contamination prior to initiation of preservative efficacy evaluations.
(§7) Organisms for this example: Pseudomonas aeruginosa (ATCC#15442), Pseudomonas aeruginosa (ATCC#10145), Enterobacter aerogenes (ATCC#13048), Escherichia coli (ATCC#11229), Klebsiella pneumoniae (ATCC#8308), Staphylococcus aureus (ATCC#6538), Salmonella choleraesuis (ATCC#10708).

[2] = test system: Pseudomonas aeruginosa (ATCC#15442), Pseudomonas aeruginosa (ATCC#10145), Enterobacter aerogenes (ATCC#13048), Escherichia coli (ATCC#11229), Klebsiella …; test: Preservative efficacy (repeated bacterial challenge) of dimethoxane/BIT in commercial liquid laundry detergent (pH 8.0), 96-deep well block
Procedure: as §1, §2, §3, §4, §5
The antimicrobial profiles dimethoxane, 1,2-benzisothiazol-3-one (BIT), and combinations of dimethoxane/BIT are evaluated in a commercial liquid laundry detergent formulation (pH 8.0).
as §7

[3] = test system: Pseudomonas aeruginosa (ATCC#15442), Pseudomonas aeruginosa (ATCC#10145), Enterobacter aerogenes (ATCC#13048), Escherichia coli (ATCC#11229), Klebsiella …; test: Preservative efficacy (repeated bacterial challenge) of dimethoxane/CMIT/MIT in commercial water-based latex paint (pH 7.4), 96-deep well block
Procedure: as §1, §2, §3, §4, §5
as §6, with “2,6-dimethyl-m-dioxan-4-ol acetate (dimethoxane), 5-chloro-2-methyl-4-isothiazolin-3-one/2-methyl-4-isothiazolin-3-one (CMIT/MIT)” for “dimethoxane, BIT,”, “dimethoxane/CMIT/MIT” for “dimethoxane/BIT”
as §7

[4] = test system: wild strain of green algae isolated from contaminated PVA latex; test: Challenge testing of PVA latex against wild strain of green algae; details: Dimethoxane 2000 ppm alone (CMIT/MIT 0 ppm), three weeks
Procedure: Procedure. In this example, a viscous PVA (poly vinyl acetate) latex diluted with water at 5 to 1 ratio is used for algal efficacy testing. Each sample is mixed well by hand and vortex for 2 minutes. 5mL portions of each sample are then placed in a six-well plate and inoculated with 500 μL of 1×10^6 cfu/mL wild strain of green algae isolated from contaminated PVA latex.
The plates are incubated at room temp (25° C.-26° C.) under cyclic exposure to light (OTT-Lite model #OTL4012P, 40 Watt, 26 KLumen) and dark phases, for a period of three weeks.

[5] = test system: Pseudomonas aeruginosa (ATCC#15442), Pseudomonas aeruginosa (ATCC#10145), Enterobacter gergoviae (ATCC#33028), Escherichia coli (ATCC#11229), Pseudomonas …; test: Preservative efficacy (repeated bacterial challenge) of dimethoxane/MIT in commercial liquid laundry detergent (pH 8.0), 96-deep well block; details: day 20
Procedure: as §1, §2, §3, §4, §5
The antimicrobial profiles of 2,6-dimethyl-m-dioxan-4-ol acetate (dimethoxane), 2-methyl-3-isothiazolinone (MIT), and combinations of dimethoxane/MIT are evaluated in a commercial liquid laundry detergent formulation (pH 8.0). The detergent formulation is determined to be free of microbial contamination prior to initiation of preservative efficacy evaluations.
Organisms for this example: Pseudomonas aeruginosa (ATCC#15442), Pseudomonas aeruginosa (ATCC#10145), Enterobacter gergoviae (ATCC#33028), Escherichia coli (ATCC#11229), Pseudomonas putida (ATCC#49128), Staphylococcus aureus (ATCC#6538).

[6] = day 20, ppm active, following four bacterial challenges

O=c1[nH]sc2ccccc12 [BIT, 1,2-benzisothiazol-3-one]
log10 viable microorganisms (score) ([1]; BIT alone 29 ppm, day 15): 8 log10 | log10 viable microorganisms (score) ([1]; BIT alone 44 ppm, day 15): 7 log10 | log10 viable microorganisms (score) ([1]; BIT alone 66 ppm, day 15): 6 log10 | log10 viable microorganisms (score) ([1]; BIT alone 99 ppm, day 15): 7 log10 | log10 viable microorganisms (score) ([1]; BIT alone 148 ppm, day 15): 7 log10 | log10 viable microorganisms (score) ([1]; BIT alone 222 ppm, day 15): 8 log10 | log10 viable microorganisms (score) ([1]; BIT alone 333 ppm, day 15): 8 log10 | log10 viable microorganisms (score) ([1]; BIT alone 500 ppm, day 15): 5 log10 | log10 viable microorganisms (score) ([2]; BIT alone 18 ppm, day 20): 6.0 log10 | log10 viable microorganisms (score) ([2]; BIT alone 26 ppm, day 20): 7.0 log10 | log10 viable microorganisms (score) ([2]; BIT alone 40 ppm, day 20): 3.0 log10 | log10 viable microorganisms (score) ([2]; BIT alone 59 ppm, day 20): 0.0 log10 | log10 viable microorganisms (score) ([2]; BIT alone 89 ppm, day 20): 0.0 log10 | log10 viable microorganisms (score) ([2]; BIT alone 133 ppm, day 20): 0.0 log10 | log10 viable microorganisms (score) ([2]; BIT alone 200 ppm, day 20): 1.0 log10 | log10 viable microorganisms (score) ([2]; BIT alone 300 ppm, day 20): 1.0 log10 | BIT alone (minimal concentration producing a 4 log10 microbial kill) [2, 6]: 59 ppm

CC(=O)OC1CC(C)OC(C)O1 (stereo not shown) [DMX, 2,6-dimethyl-m-dioxane-4-ol acetate]
log10 viable microorganisms ([1]; 360 h, 1160 ppm): 3 log10 | log10 viable microorganisms ([1]; DMX alone 102 ppm a.i., day 15): 7 log10 | log10 viable microorganisms ([1]; DMX alone 153 ppm a.i., day 15): 8 log10 | log10 viable microorganisms ([1]; DMX alone 229 ppm a.i., day 15): 7 log10 | log10 viable microorganisms ([1]; DMX alone 344 ppm a.i., day 15): 7 log10 | log10 viable microorganisms ([1]; DMX alone 516 ppm a.i., day 15): 8 log10 | log10 viable microorganisms ([1]; DMX alone 773 ppm a.i., day 15): 7 log10 | log10 viable microorganisms ([1]; DMX alone 1740 ppm a.i., day 15): 0 log10 | DMX alone (minimal concentration producing a 4 log10 microbial kill) ([1]; day 15, ppm active, following four bacterial challenges): 1160 ppm | log10 viable microorganisms ([3]; 480 h, 1740 ppm): 2 log10 | log10 viable microorganisms ([3]; DMX alone 102 ppm a.i., day 20): 8 log10 | log10 viable microorganisms ([3]; DMX alone 153 ppm a.i., day 20): 8 log10 | log10 viable microorganisms ([3]; DMX alone 229 ppm a.i., day 20): 7 log10 | log10 viable microorganisms ([3]; DMX alone 344 ppm a.i., day 20): 7 log10 | log10 viable microorganisms ([3]; DMX alone 516 ppm a.i., day 20): 8 log10 | log10 viable microorganisms ([3]; DMX alone 773 ppm a.i., day 20): 8 log10 | log10 viable microorganisms ([3]; DMX alone 1160 ppm a.i., day 20): 6 log10 | DMX alone (minimal concentration producing a 4 log10 microbial kill) [3, 6]: 1740 ppm | % algal growth Sample A [4]: 15% | % algal growth Sample B [4]: 15% | log10 viable microorganisms ([5]; DMX alone 77 ppm): 8.0 log10 | log10 viable microorganisms ([5]; DMX alone 115 ppm): 8.0 log10 | log10 viable microorganisms ([5]; DMX alone 172 ppm): 8.0 log10 | log10 viable microorganisms ([5]; DMX alone 257 ppm): 5.0 log10 | log10 viable microorganisms ([5]; DMX alone 386 ppm): 4.0 log10 | log10 viable microorganisms ([5]; DMX alone 580 ppm): 3.0 log10 | log10 viable microorganisms ([5]; DMX alone 870 ppm): 1.0 log10 | log10 viable microorganisms ([5]; DMX alone 1305 ppm): 0.0 log10 | DMX alone (minimal concentration producing a 4 log10 microbial kill) [5]: 870 | log10 viable microorganisms ([2]; 480 h, 1160 ppm): 0.0 log10 | log10 viable microorganisms ([2]; DMX alone 102 ppm a.i., day 20): 6.0 log10 | log10 viable microorganisms ([2]; DMX alone 153 ppm a.i., day 20): 6.0 log10 | log10 viable microorganisms ([2]; DMX alone 229 ppm a.i., day 20): 6.0 log10 | log10 viable microorganisms ([2]; DMX alone 344 ppm a.i., day 20): 6.0 log10 | log10 viable microorganisms ([2]; DMX alone 516 ppm a.i., day 20): 6.0 log10 | log10 viable microorganisms ([2]; DMX alone 773 ppm a.i., day 20): 4.0 log10 | log10 viable microorganisms ([2]; DMX alone 1740 ppm a.i., day 20): 0.0 log10 | DMX alone (minimal concentration producing a 4 log10 microbial kill) [2, 6]: 1160 ppm

Cn1ccc(=O)s1 [MIT, 2-Methyl-3-isothiazolinone]
log10 viable microorganisms (score) ([5]; MIT alone 3 ppm): 8.0 log10 | log10 viable microorganisms (score) ([5]; MIT alone 4 ppm): 8.0 log10 | log10 viable microorganisms (score) ([5]; MIT alone 7 ppm): 8.0 log10 | log10 viable microorganisms (score) ([5]; MIT alone 10 ppm): 8.0 log10 | log10 viable microorganisms (score) ([5]; MIT alone 15 ppm): 8.0 log10 | log10 viable microorganisms (score) ([5]; MIT alone 22 ppm): 8.0 log10 | log10 viable microorganisms (score) ([5]; MIT alone 33 ppm): 8.0 log10 | log10 viable microorganisms (score) ([5]; MIT alone 50 ppm): 3.0 log10 | MIT Alone (minimal concentration producing a 4 log10 microbial kill) [5]: >50 ppm
